SMILES strings stand for the structures. Like-named read-outs stand apart in the source and are kept apart here.

The text below walks through data of patent US20180153807A1, “COMPOSITIONS AND METHODS FOR TREATING MYCOBACTERIA INFECTIONS AND LUNG DISEASE” (priority 2015, published 2018).

In series [1] the test system is Mycobacterium avium complex (MAC) 104 biofilm. In words: Cochleate treatment of Mycobacteria biofilm on polarized A549 cells in transwell. The series is classed as cell-based. The conditions noted are these: delivered daily to bottom well, MAC 104 biofilm on A549 cells. On the procedure:
A549 alveolar epithelial cells were cultured in a transwell system. A549 cells became polarized after 6 days and integrity. Bacteria were seeded on the top (apical surface) of the cells. Seven days were allowed for biofilm formation.
Mycobacterium avium complex (MAC) 104 (10^5 bacteria) infection inoculum.
0.1 ml of the different treatments were delivered to the bottom well daily. The basolateral surface (bottom) of the cells were immersed in the tissue culture medium present in the bottom well. Three replicas per experimental group were tested in two different experiments.
Biofilm and epithelial cells were lysed and diluted and plated onto 7H10.

In series [2] the test system is Mycobacterium avium complex (MAC). The procedure:
C57 BL/6 mice were infected with 8.3×10^6 of Mycobacterium avium complex (MAC) intranasally and the infection was allowed to establish for 7 days. Then baseline bacterial load was determined in 10 mice and treatment protocols were initiated. Mice were treated daily for 4 weeks (orally or with intraperitonal injection of free amikacin). Mice were harvested and lung and spleens were removed, homogenized and plated to determine the bacterial load. Experimental groups had 12 mice each.

The conditions of series [3]: rats; cited from earlier work.

Turning to `NCC[C@H](O)C(=O)N[C@@H]1C[C@H](N)[C@@H](O[C@H]2O[C@H](CN)[C@@H](O)[C@H](O)[C@H]2O)[C@H](O)[C@H]1O[C@H]1O[C@H](CO)[C@@H](O)[C@H](N)[C@H]1O` [Free amikacin, Amikacin], the “CFU/bacteria, 14 days” value is 9.1 ± 0.4 × 10^5 CFU in series [1] (20 μg/ml) and 3.2 ± 0.3 × 10^5 CFU in series [1] (100 μg/ml). For the same compound, the bacterial load was 5.6 ± 0.4 × 10^3^(2)(3) CFU in series [2] (IP 100 mg/Kg, daily for 4 weeks, 100 mg/kg); 5.6×10^3 CFU in series [2] (IP 100 mg/Kg, daily for 4 weeks, listed as AMK, 100 mg/kg); 2.2 ± 0.5 × 10^5^(1) CFU in series [2] (oral, daily for 4 weeks, dose not given). The “kind of effect observed (in words)” value in series [2] (daily for 4 weeks) is given as “bactericidal”. For the same compound, in series [2] (mouse, in vivo), the “toxicity, histopathology including kidneys (in words)” value is recorded as “no toxicity was observed”. In addition, the “published NOAEL for injected (intravenous) amikacin” value in series [3] was 100 mg/kg.
